From patent US6503912B1, “Substituted guanidine derivatives” (Bayer Aktiengesellschaft, priority 1998, dated 2003)

Tests used:
[1] = test system: peach aphid (Myzus persicae); experiment: Myzus Test; format: in vivo; conditions: active compound concentration 0.1%; dipped cabbage leaves; after 6 days
Experimental: (§1) Solvent: 7 parts by weight of dimethylformamide
(§2) Emulsifier: 1 part by weight of alkylaryl polyglycol ether
(§3) To produce a suitable preparation of active compound, 1 part by weight of active compound is mixed with the stated amount of solvent, and the stated amount of emulsifier, and the concentrate is diluted with water to the desired concentration.
Cabbage leaves (Brassica oleracea) which are heavily infested by the peach aphid (Myzus persicae) are treated by being dipped into the preparation of active compound of the desired concentration.
(§4) After the desired period of time, the kill in % is determined. 100% means that all aphids have been killed; 0% means that none of the aphids has been killed.

[2] = test system: larvae of the green rice leaf-hopper (Nephotettix cincticeps); experiment: Nephotettix Test; format: in vivo; conditions: active compound concentration 0.1%; dipped rice seedlings; after 6 days
Experimental: as §1, §2, §3
Rice seedlings (Oryza sativa) are treated by being dipped into the preparation of active compound of the desired concentration and are populated with larvae of the green rice leaf-hopper (Nephotettix cincticeps) while the seedlings are still moist.
After the desired period of time, the kill in % is determined. 100% means that all leaf-hoppers have been killed; 0% means that none of the leaf-hoppers has been killed.

[3] = test system: mustard beetle larvae (Phaedon cochleariae); experiment: Phaedon larvae Test; format: in vivo; conditions: active compound concentration 0.1%; dipped cabbage leaves; after 7 days
Experimental: as §1, §2
To produce a suitable preparation of active compound, 1 part by weight of active compound is mixed with the stated amount of solvent and the stated amount of emulsifier, and the concentrate is diluted with water to the desired concentration.
Cabbage leaves (Brassica oleracea) are treated by being dipped into the preparation of active compound of the desired concentration and are populated with mustard beetle larvae (Phaedon cochleariae) whilst the leaves are still moist.
After the desired period of time, the kill in % is determined. 100% means that all beetle larvae have been killed; 0% means that none of the beetle larvae has been killed.

[4] = not given; remark: listed apart in the source
[5] = test system: larvae of the army worm (Spodoptera frugiperda); experiment: Spodoptera Frugiperda Test; format: in vivo; conditions: active compound concentration 0.1%; dipped cabbage leaves; after 7 days
Experimental: Spodoptera Frugiperda Test
as §1, §2
To produce a suitable preparation of active compound, 1 part by weight of active compound is mixed with the stated amounts of solvent and emulsifier, and the concentrate is diluted with water to the desired concentration.
Cabbage leaves (Brassica oleracea) are treated by being dipped into the preparation of active compound of the desired concentration and are populated with larvae of the army worm (Spodoptera frugiperda) whilst the leaves are still moist.
After the desired period of time, the kill in % is determined. 100% means that all larvae have been killed; 0% means that none of the larvae has been killed.

[6] = test system: Lucilia cuprina larvae; experiment: Blowfly Larvae Test/development-inhibitory Action; format: in vivo; conditions: active compound concentration 100 ppm; flies hatched after 1.5 times the development period of untreated control
Experimental: Blowfly Larvae Test/development-inhibitory Action
Test animals: Lucilia cuprina larvae
Solvent: Dimethyl sulfoxide
20 mg of active compound are dissolved in 1 ml of dimethyl sulfoxide, more dilute concentrations are prepared by dilution with Dest.H2O.
About 20 Lucilia cuprina larvae are introduced into a test tube which contains about 1 cm^3 of horse meat and 0.5 ml of the preparation of active compound to be tested. After 24 hours and 48 hours, the effectiveness of the preparation of active compound is determined. The test tubes are transferred into beakers whose bottom is covered with sand. After a further 2 days, the test tubes are removed and the pupae are counted.
The effect of the preparation of active compound is assessed by the number of flies which have hatched after 1.5 times the development period of an untreated control. 100% means that no flies have hatched; 0% means that all flies have hatched normally.

[7] = test system: Mosquito larvae (Aedes aegypti); experiment: Aedes Test; format: in vivo; conditions: active compound concentration 0.0016%; after 4 hours
Experimental: Solvent: 1000 parts by weight of methanol
To produce a suitable preparation of active compound, 1 part by weight of active compound is mixed with the stated amount of solvent, and the concentrate is diluted with water to the desired concentrations.
Mosquito larvae (Aedes aegypti) are placed into the preparation of active compound of the desired concentration.
After the desired period of time, the effect on the larvae is determined.

[8] = test system: black bean aphid (Aphis fabae); experiment: Aphis Test (Systemic Action); format: in vivo; conditions: active compound concentration 0.01%, watering of Vicia faba, after 4 days
Experimental: Aphis Test (Systemic Action)
as §1, §2, §3
Bean plants (Vicia faba) which are heavily infested by the black bean aphid (Aphis fabae) are watered with in each case 20 ml of the preparation of active compound of the desired concentration so that the preparation of active compound penetrates into the soil without wetting the shoot. The active compound is taken up by the roots and passed on to the shoot.
as §4

[9] = test system: Aphis fabae; experiment: Critical Concentration Test/root-systemic Action; format: in vivo; conditions: 20 ppm in soil; broad beans; leaves populated after 7 days, evaluation after a further 6 days
Experimental: Critical Concentration Test/root-systemic Action
Solvent: 4 parts by weight of acetone
as §2
To produce a suitable preparation of active compound, 1 part by weight of active compound is mixed with the stated amount of solvent, the stated amount of emulsifier is added and the concentrate is diluted with water to the desired concentration.
The preparation of active compound is mixed intimately with soil. The concentration of the active compound in the preparation is virtually immaterial, only the amount by weight of active compound per volume unit of soil, which is stated in ppm (=mg/l), matters. The treated soil is filled into pots which are planted with pregerminated broad beans. Thus, the active compound can be taken up from the soil by the plant roots and transported into the leaves.
After a further 6 days, evaluation is carried out by counting or estimating the dead animals. The root-systemic action of the active compound is deduced from the number of animals killed. It is 100% when all test animals have been killed and 0% when the number of live test insects is identical to that of the untreated control.

[10] = test system: larva (L2-L3) of the army worm (Spodoptera frugiperda); experiment: Spodoptera Frugiperda Test/artificial Feed; format: in vivo; conditions: active compound concentration 0.05%; artificial feed; after 7 days
Experimental: Spodoptera Frugiperda Test/arfificial Feed
(§5) Solvent: 100 parts by weight of acetone
(§6) 1900 parts by weight of methanol
(§7) To produce a suitable preparation of active compound, 1 part by weight of active compound is mixed with the stated amount of solvent, and the concentrate is diluted with methanol to the desired concentration.
A stated amount of the preparation of active compound of the desired concentration is pipetted onto a standardized quantity of artificial feed. After the methanol has evaporated, in each case one larva (L2-L3) of the army worm (Spodoptera frugiperda) is placed onto the feed, in 3 repetitions.
After the desired period of time, the kill in % is determined. 100% means that all animals have been killed; 0% means that none of the animals has been killed.

[11] = test system: eggs of the onion fly (Hylemyia antiqua); experiment: Hylemyia Test; format: in vivo; conditions: active compound concentration 0.05%; artificial feed; after 7 days
Experimental: as §5, §6, §7
A stated amount of the preparation of active compound of the desired concentration is pipetted onto a standardized quantity of artificial feed. After the methanol has evaporated, about 20 eggs of the onion fly (Hylemyia antiqua) are placed on the feed.
After the desired period of time, the kill of the eggs or larvae in % is determined. 100% means that all animals have been killed; 0% means that none of the animals has been killed.

SMILES	logP (pH = 2.3)	kill [1]	kill [2]	kill [3]	kill [5]	further results
COCN1CCN(Cc2cnc(Cl)s2)C1=N[N+](=O)[O-] [Example 16]	1.14	100%				
CCOCn1ccn(Cc2ccc(Cl)nc2)c1=N[N+](=O)[O-] [Example 6]	1.09					
O=[N+]([O-])N=C1N(COCCBr)CCN1Cc1ccc(Cl)nc1 [Example 53]	1.64					
CC(C)COCN1CCN(Cc2cnc(Cl)s2)C1=N[N+](=O)[O-] [Example 19]	2.12		100%	100%		
COCCOCN1CCN(Cc2ccc(Cl)nc2)C1=N[N+](=O)[O-] [Example 24]	1.16		100%			
CC(C)OCN1CCN(Cc2ccc(Cl)nc2)C1=NC#N						melting point [4]: 85 to 87 °C
CC(C)(C)C(=O)OCN1CCN(Cc2ccc(Cl)nc2)C1=N[N+](=O)[O-] [Example 25]		100%	100%	100%	100%	
COCN1CCN(Cc2ccc(Cl)nc2)C1=NC#N [Example 29]	1.32					
CCCOCN1CCN(Cc2ccc(Cl)nc2)C1=NC#N [Example 32]	1.89					
CCC(=O)OCN1CCN(Cc2ccc(Cl)nc2)C1=N[N+](=O)[O-] [Example 35]	1.50			100%	100%	
CCCOCN1CCN(Cc2ccc(Cl)nc2)C1=N[N+](=O)[O-] [Example 10]	1.64	100%	100%	100%	100%	development-inhibitory effect [6]: 100%
CC(C)OCn1ccn(Cc2ccc(Cl)nc2)c1=N[N+](=O)[O-] [Example 14]		100%	100%			
CCC(C)OCN1CCN(Cc2ccc(Cl)nc2)C1=N[N+](=O)[O-] (centres unmarked) [Example 21]	1.86		100%	100%		
CC(C)(C)COCN1CCN(Cc2ccc(Cl)nc2)C1=N[N+](=O)[O-] [Example 20]		100%			100%	
CC(C)C(=O)OCN1CCN(Cc2ccc(Cl)nc2)C1=N[N+](=O)[O-] [Example 36]		100%	100%	100%	100%	
CC(C)COCn1ccn(Cc2ccc(Cl)nc2)c1=N[N+](=O)[O-] [Example 15]		100%	100%			
CCCCCCCCOCn1ccn(Cc2ccc(Cl)nc2)c1=N[N+](=O)[O-] [Example 7]						kill [7]: 100%
CCCCOCn1ccn(Cc2ccc(Cl)nc2)c1=N[N+](=O)[O-] [Example 41]	1.72					

SMILES	logP (pH = 2.3)	kill [1]	kill [2]	kill [3]	kill [5]	further results
COCCOCN1CCN(Cc2ccc(Cl)nc2)C1=NC#N [Example 31]	1.40					
CCOCN1CCN(Cc2ccc(Cl)nc2)C1=N[N+](=O)[O-] [Example 4]			100%	100%		kill [8]: 100%; kill (root-systemic action) [9]: 100%; kill [10]: 100%; kill of the eggs or larvae [11]: 100%; kill [7]: 100%
CCCCCCCCOCN1CCN(Cc2ccc(Cl)nc2)C1=N[N+](=O)[O-] [Example 5]	3.55					kill [8]: 95%; kill (root-systemic action) [9]: 100%; kill [7]: 100%
O=[N+]([O-])/N=c1\n(COCCBr)ccn1Cc1ccc(Cl)nc1						melting point [4]: 90 to 92 °C
CCCCCCOCN1CCN(Cc2ccc(Cl)nc2)C1=N[N+](=O)[O-] [Example 23]	2.73					
CCCOCN1CCN(Cc2cnc(Cl)s2)C1=N[N+](=O)[O-] [Example 2, 1-(2-chloro-thiazol-5-yl-methyl)-2-nitroimino-3-n-propoxymethyl-imidazolidine]					100%	
CC(C)OCN1CCCN(Cc2ccc(Cl)nc2)C1=N[N+](=O)[O-] [Example 56]	1.34					
CCN(CC)CCOCN1CCN(Cc2ccc(Cl)nc2)C1=N[N+](=O)[O-] [Example 43]	0.70					
CCCCOCN1CCN(Cc2ccc(Cl)nc2)C1=N[N+](=O)[O-] [Example 40]	1.98					
CC(=O)OCN1CCN(Cc2ccc(Cl)nc2)C1=N[N+](=O)[O-] [Example 33]			100%	100%	100%	
CC(C)OCN1CCN(Cc2cnc(Cl)s2)C1=N[N+](=O)[O-] [Example 18]	1.65	100%	100%	100%	100%	
CCCCCOCN1CCN(Cc2ccc(Cl)nc2)C1=N[N+](=O)[O-] [Example 22]	2.35					
CC(C)OCN1CCN(Cc2ccc(Cl)nc2)C1=N[N+](=O)[O-] [Example 12]		100%	100%	100%	100%	development-inhibitory effect [6]: 100%
COCn1ccn(Cc2ccc(Cl)nc2)c1=N[N+](=O)[O-] [Example 9]	0.78					kill [8]: 100%; development-inhibitory effect [6]: 100%
CC(C)COCN1CCN(Cc2ccc(Cl)nc2)C1=N[N+](=O)[O-] [Example 13]	2.00	100%	100%		100%	development-inhibitory effect [6]: 100%
CCOCN1CCN(Cc2cnc(Cl)s2)C1=N[N+](=O)[O-] [Example 17]	1.40	100%		100%	100%	
CCCOCn1ccn(Cc2ccc(Cl)nc2)c1=N[N+](=O)[O-] [Example 11]		100%				development-inhibitory effect [6]: 100%
